# Earlier results in patent US7815920B2, “Method of preparing an antigen-containing formulation” (Allergy Therapeutics (UK) Ltd, priority 1998, dated 2010).
# Conditions: not given
row,SMILES,solubility in water (in words)
1,N[C@@H](CS)C(=O)O [cysteine],quite soluble in water
2,NCCCC[C@H](N)C(=O)O [lysine],quite soluble in water

# Same assay, conditions: at 25° C.
row,Water Solubility,SMILES
1,3.0 g/100 ml H2O,N[C@@H](Cc1ccccc1)C(=O)O [phenylalanine]
2,3.7 g/100 ml H2O,NC(=O)CC[C@H](N)C(=O)O [glutamine]
3,8.9 g/100 ml H2O,CC(C)[C@H](N)C(=O)O [valine]
4,4.1 g/100 ml H2O,CC[C@H](C)[C@H](N)C(=O)O [isoleucine]
5,3.4 g/100 ml H2O,CSCC[C@H](N)C(=O)O [methionine]
6,1.1 g/100 ml H2O,N[C@@H](Cc1c[nH]c2ccccc12)C(=O)O [tryptophan]
7,very,N[C@@H](CS)C(=O)O [cysteine]
8,4.2 g/100 ml H2O,N[C@@H](Cc1c[nH]cn1)C(=O)O [histidine]
9,16.7 g/100 ml H2O,C[C@H](N)C(=O)O [alanine]
10,3.5 g/100 ml H2O,NC(=O)C[C@H](N)C(=O)O [asparagine]
11,2.4 g/100 ml H2O,CC(C)C[C@H](N)C(=O)O [leucine]

row,SMILES,Water Solubility
1,NCCCC[C@H](N)C(=O)O [lysine],very
